Data as given in paper PMC4457528, “Identification of Novel Small Molecule Inhibitors of Oncogenic RET Kinase” (PLoS ONE, 2015).
Where two headings read alike, the source gives them in different places.

Key:
Assay in all cases: KinomeScan kinase panel, single concentration 10 µM
Format in all cases: binding
[1] = molecular target: T1, KinomeScan kinase panel (Homo sapiens, UniProt O14920); settings: IKK-beta, 10 µM; read-out: score (%)
T1 construct: purchased DiscoveRx (KinomeScan)
T1 sequence (O14920 1-756): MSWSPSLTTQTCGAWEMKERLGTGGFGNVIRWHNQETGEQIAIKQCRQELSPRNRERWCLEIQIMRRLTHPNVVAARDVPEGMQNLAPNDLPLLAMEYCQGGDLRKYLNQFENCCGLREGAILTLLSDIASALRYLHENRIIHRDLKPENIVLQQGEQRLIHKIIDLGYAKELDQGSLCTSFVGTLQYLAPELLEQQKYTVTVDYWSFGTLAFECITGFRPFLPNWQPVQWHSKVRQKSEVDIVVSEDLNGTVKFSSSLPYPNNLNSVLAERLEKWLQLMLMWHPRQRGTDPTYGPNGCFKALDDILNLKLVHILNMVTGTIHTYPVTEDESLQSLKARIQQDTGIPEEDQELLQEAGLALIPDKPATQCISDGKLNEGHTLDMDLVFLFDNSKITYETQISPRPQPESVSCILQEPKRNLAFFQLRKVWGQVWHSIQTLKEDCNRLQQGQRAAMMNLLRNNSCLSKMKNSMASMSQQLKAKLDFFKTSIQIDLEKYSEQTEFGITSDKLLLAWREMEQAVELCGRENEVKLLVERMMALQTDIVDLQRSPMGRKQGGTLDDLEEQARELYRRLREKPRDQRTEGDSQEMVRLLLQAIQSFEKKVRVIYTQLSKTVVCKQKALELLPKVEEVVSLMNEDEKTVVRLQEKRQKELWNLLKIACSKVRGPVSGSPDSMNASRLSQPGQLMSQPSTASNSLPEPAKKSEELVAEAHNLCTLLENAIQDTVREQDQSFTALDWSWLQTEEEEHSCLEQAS

[2] = molecular target: T2, KinomeScan kinase panel (Homo sapiens, UniProt P00533, G719S); settings: EGFR(G719S), 10 µM
T2 construct: purchased DiscoveRx (KinomeScan)

[3] = molecular target: T3, KinomeScan kinase panel (Homo sapiens, UniProt P27037); settings: ACVR2A, 10 µM; read-out: score (%)
T3 construct: purchased DiscoveRx (KinomeScan)

[4] = molecular target: T4, KinomeScan kinase panel (Homo sapiens, UniProt P35590); settings: read-out: score (%)
T4 construct: purchased DiscoveRx (KinomeScan)

[5] = molecular target: T5, KinomeScan kinase panel (Homo sapiens, UniProt Q09013); settings: DMPK, 10 µM; read-out: score (%)
T5 construct: purchased DiscoveRx (KinomeScan)
T5 sequence (Q09013 1-629): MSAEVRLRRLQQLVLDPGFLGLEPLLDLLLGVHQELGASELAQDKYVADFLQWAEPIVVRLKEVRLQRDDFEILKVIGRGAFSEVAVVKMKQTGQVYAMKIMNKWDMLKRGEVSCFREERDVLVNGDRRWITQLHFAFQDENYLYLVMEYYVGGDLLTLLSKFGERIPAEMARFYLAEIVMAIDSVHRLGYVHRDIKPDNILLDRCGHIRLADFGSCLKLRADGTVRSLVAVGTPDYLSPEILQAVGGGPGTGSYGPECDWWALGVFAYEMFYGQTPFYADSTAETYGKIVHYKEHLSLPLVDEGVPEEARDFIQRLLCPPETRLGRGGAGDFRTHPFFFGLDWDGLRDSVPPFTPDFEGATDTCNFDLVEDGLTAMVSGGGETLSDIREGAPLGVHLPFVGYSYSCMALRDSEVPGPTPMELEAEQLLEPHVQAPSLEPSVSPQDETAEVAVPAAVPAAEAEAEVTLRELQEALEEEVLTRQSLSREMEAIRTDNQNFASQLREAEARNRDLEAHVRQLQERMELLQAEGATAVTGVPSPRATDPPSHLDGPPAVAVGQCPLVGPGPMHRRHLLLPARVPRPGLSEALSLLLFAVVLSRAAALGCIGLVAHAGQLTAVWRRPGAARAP

[6] = molecular target: T6, KinomeScan kinase panel (Homo sapiens, UniProt Q13164); settings: ERK5, 10 µM; read-out: score (%)
T6 construct: purchased DiscoveRx (KinomeScan)

[7] = molecular target: T7, KinomeScan kinase panel (Homo sapiens, UniProt Q99759); settings: MAP3K3, 10 µM; read-out: score (%)
T7 construct: purchased DiscoveRx (KinomeScan)
T7 sequence (Q99759 1-626): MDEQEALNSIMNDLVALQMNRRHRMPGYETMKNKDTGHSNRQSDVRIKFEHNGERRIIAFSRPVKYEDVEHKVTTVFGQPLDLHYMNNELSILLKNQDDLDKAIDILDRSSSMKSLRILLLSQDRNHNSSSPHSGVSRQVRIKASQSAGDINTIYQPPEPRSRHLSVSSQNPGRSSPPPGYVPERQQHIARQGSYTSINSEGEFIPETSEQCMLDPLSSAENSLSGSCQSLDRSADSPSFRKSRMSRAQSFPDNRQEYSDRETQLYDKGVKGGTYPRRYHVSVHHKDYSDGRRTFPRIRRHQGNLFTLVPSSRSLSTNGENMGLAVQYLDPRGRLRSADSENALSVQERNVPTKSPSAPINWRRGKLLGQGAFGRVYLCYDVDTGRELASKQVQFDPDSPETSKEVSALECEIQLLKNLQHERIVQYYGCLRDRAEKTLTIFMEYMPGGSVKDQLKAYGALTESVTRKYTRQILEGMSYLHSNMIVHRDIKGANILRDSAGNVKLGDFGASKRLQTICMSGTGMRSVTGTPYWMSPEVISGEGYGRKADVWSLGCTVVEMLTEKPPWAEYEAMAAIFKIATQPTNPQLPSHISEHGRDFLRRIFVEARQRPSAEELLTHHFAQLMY

[8] = molecular target: T8, KinomeScan kinase panel (Homo sapiens, UniProt Q9HC98); settings: NEK6, 10 µM; read-out: score (%)
T8 construct: purchased DiscoveRx (KinomeScan)

[9] = molecular target: T9, KinomeScan kinase panel (Homo sapiens, UniProt Q9P2K8, S808G); settings: GCN2(Kin.Dom.2.S808G), 10 µM; read-out: score (%)
T9 construct: purchased DiscoveRx (KinomeScan)

[10] = molecular target: T10, KinomeScan kinase panel (Homo sapiens, UniProt Q9Y4K4); settings: MAP4K5, 10 µM; read-out: score (%)
T10 construct: purchased DiscoveRx (KinomeScan)

T9 sequence (Q9P2K8 whole entry S808G): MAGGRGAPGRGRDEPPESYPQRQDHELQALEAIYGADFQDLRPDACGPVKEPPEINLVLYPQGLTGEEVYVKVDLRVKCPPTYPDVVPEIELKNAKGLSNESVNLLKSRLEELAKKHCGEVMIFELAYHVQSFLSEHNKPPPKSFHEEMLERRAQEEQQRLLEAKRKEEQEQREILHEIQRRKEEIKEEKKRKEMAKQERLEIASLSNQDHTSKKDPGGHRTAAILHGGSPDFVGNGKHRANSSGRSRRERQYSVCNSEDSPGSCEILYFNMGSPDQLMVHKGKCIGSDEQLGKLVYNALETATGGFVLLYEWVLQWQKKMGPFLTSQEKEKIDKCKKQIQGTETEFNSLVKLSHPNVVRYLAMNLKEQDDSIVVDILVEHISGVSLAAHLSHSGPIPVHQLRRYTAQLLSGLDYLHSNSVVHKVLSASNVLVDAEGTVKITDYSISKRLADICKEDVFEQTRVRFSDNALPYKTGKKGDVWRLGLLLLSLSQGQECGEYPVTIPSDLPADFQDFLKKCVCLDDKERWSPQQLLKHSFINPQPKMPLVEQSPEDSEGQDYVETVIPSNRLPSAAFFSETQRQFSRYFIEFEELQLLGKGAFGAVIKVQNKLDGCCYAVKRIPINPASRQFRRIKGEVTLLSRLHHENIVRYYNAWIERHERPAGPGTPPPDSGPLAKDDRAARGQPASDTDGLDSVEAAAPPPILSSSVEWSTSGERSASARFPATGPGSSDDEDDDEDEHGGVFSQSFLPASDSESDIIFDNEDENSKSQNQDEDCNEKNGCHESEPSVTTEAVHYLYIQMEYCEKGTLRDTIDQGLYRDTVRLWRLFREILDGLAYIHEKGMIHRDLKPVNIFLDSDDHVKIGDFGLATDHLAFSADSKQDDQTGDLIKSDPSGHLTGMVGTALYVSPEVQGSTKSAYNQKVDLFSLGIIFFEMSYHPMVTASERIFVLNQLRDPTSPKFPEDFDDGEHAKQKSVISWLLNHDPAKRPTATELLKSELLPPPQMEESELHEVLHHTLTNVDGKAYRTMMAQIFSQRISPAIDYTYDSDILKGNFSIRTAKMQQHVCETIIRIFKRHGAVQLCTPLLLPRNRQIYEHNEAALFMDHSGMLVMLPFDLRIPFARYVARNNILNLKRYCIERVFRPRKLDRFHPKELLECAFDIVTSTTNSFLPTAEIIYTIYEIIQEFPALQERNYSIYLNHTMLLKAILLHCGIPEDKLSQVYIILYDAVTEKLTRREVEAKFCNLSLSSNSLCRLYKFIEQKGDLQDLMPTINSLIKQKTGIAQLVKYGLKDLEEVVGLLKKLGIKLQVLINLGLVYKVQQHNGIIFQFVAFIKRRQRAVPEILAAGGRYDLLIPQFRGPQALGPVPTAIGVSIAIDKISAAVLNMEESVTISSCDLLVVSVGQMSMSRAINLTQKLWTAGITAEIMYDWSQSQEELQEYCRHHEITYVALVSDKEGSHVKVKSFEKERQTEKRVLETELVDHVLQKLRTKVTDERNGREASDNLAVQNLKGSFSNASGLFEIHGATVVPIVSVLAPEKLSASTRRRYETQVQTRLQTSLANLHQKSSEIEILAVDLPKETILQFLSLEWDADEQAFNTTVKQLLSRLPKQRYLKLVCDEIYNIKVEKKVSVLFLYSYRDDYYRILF
T3 sequence (P27037 20-513): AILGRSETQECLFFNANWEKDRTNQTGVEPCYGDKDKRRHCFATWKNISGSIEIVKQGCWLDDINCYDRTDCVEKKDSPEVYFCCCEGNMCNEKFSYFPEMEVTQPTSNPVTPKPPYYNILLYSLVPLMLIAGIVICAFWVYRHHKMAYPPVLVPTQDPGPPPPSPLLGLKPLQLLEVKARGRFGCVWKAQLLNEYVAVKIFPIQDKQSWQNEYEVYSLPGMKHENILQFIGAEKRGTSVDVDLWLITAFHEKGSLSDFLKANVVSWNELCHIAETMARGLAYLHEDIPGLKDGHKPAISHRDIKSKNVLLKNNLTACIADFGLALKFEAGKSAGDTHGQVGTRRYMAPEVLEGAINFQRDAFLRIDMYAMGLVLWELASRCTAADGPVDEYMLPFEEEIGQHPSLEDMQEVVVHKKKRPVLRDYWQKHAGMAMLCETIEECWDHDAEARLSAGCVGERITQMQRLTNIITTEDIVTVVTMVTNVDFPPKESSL
T2 sequence (P00533 25-1210 G719S): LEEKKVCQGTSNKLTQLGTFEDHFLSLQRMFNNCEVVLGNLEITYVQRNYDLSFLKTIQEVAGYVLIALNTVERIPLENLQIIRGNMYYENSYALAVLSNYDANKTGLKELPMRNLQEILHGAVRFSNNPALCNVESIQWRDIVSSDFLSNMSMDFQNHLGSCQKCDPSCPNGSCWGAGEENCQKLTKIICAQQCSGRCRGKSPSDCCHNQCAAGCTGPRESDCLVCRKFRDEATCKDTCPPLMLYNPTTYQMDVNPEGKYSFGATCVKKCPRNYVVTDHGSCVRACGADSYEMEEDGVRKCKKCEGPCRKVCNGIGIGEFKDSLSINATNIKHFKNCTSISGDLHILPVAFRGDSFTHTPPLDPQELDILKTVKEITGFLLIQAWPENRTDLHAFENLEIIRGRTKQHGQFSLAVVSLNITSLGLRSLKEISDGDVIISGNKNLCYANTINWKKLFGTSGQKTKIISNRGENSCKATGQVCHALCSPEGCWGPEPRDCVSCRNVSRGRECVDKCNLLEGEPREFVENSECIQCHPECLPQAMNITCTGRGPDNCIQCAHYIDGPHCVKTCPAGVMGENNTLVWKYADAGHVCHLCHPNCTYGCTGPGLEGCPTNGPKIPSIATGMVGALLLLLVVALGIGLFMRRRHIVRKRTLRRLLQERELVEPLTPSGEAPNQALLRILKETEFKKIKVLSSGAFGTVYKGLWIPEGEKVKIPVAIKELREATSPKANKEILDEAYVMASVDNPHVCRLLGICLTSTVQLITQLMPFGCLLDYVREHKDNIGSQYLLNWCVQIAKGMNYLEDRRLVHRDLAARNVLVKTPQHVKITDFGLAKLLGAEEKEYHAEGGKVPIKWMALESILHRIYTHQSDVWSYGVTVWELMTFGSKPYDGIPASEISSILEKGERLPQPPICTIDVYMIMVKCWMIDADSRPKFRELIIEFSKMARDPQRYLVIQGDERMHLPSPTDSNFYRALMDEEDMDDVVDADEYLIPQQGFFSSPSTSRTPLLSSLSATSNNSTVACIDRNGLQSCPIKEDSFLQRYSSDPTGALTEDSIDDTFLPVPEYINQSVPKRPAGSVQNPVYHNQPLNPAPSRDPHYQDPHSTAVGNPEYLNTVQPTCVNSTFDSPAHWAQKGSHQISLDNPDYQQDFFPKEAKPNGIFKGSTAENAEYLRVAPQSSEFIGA
T8 sequence (Q9HC98 whole entry): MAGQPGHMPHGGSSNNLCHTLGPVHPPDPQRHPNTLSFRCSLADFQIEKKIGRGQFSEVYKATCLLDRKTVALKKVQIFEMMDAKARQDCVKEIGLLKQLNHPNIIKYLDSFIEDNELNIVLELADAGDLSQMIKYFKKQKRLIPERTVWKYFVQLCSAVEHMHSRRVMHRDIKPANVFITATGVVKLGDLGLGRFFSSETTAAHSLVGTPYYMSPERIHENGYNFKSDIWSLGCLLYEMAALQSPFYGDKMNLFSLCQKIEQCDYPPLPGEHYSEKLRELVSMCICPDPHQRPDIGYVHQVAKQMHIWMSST
T4 sequence (P35590 22-1138): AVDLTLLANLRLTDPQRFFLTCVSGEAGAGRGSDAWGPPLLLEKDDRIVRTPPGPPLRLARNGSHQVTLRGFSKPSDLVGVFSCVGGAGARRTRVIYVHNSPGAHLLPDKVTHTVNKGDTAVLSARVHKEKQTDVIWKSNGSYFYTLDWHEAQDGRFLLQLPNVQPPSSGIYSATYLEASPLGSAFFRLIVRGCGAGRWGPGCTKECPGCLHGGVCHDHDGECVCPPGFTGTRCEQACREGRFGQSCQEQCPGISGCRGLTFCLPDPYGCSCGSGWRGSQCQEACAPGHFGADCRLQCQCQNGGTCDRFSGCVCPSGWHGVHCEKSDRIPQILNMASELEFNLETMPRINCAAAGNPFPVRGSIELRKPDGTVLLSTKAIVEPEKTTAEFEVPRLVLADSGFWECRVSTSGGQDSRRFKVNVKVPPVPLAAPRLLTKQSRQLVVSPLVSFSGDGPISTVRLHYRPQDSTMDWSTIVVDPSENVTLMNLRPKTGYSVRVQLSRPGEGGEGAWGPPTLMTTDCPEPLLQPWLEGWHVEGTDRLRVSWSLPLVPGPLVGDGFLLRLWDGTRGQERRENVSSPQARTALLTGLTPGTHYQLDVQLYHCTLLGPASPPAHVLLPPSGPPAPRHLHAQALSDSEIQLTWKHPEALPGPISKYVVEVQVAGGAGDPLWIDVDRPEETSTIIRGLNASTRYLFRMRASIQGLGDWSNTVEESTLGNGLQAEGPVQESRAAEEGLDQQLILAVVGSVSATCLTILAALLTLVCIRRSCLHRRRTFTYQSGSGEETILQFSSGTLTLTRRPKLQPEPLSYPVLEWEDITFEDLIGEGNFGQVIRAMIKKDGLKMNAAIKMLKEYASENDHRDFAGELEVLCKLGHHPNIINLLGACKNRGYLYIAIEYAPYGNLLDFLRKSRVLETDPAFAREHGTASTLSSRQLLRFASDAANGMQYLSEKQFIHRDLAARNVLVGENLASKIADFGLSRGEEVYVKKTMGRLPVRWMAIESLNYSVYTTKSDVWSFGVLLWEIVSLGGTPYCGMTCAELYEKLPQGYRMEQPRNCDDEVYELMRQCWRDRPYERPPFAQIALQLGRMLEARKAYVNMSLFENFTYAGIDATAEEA

| SMILES | remaining binding at 10 µM [1] | score (%) [2] | remaining binding at 10 µM [3] | remaining binding at 10 µM ([4]; kinase TIE1, 10 µM) | remaining binding at 10 µM [5] | remaining binding at 10 µM [6] | remaining binding at 10 µM [7] | remaining binding at 10 µM [8] | remaining binding at 10 µM [9] | remaining binding at 10 µM [10] | remaining binding at 10 µM ([4]; TIE1, 10 µM) |
| --- | --- | --- | --- | --- | --- | --- | --- | --- | --- | --- | --- |
| CCN1CCN(Cc2ccc(NC(=O)c3ccc(C)c(NC(=O)c4cncc(-c5cccs5)c4)c3)cc2C(F)(F)F)CC1 [ALW-II-41-27] | 1.2% | 0.5% | > 30% | 1.4% | > 30% | > 30% | 0.25% | > 30% | 0.3% | 0.75% |  |
| CCN1CCN(Cc2ccc(NC(=O)c3ccc(C)c(/C=C/c4cnc5[nH]ccc5c4Cl)c3)cc2C(F)(F)F)CC1 [HG-6-63-01, (E)-3-(2-(4-chloro-1H-pyrrolo[2,3-b]pyridin-5-yl)vinyl)-N-(4-((4-ethylpiperazin-1-yl)methyl)-3-(trifluoromethyl)phenyl)-4-methylbenzamide] | 5.9% | 0.1% | > 30% |  | > 30% | > 30% | 4% | > 30% | 0.95% | 1.8% | 1.2% |
| CCN1CCN(Cc2ccc(NC(=O)c3ccc(C)c(C#Cc4cccnc4)c3)cc2C(F)(F)F)CC1 [XMD15-44] | 0% | 2.4% | > 30% | 1.6% | > 30% | > 30% | 1.4% | 90% | 1.3% | 3% |  |
